Data reported in US20010034328A1, “Treatment of male chronic pelvic pain syndrome” (priority 2000, published 2001).

Key:
[1] = system: male subjects having a clinical diagnosis of chronic pelvic pain syndrome; experiment: treatment of male subjects with chronic pelvic pain syndrome with 600-900 mg per day; assay type: in vivo, human; conditions: 600, 700, 800 or 900 mg per day orally, up to sixteen weeks or more
Method: Utilizing capsules prepared as above and 100 mg capsules available from ALZA Corporation as appropriate to meet the daily dosing requirements, male subjects having a clinical diagnosis of chronic pelvic pain syndrome are treated with 600, 700, 800 or 900 mg per day of pentosan polysulfate sodium for up to sixteen weeks, generally 1-2 weeks, 2-4 weeks, 4-8 weeks, 8-16 weeks or up to 32 weeks or more. The daily doses may be administered in multiple doses, generally three times per day with each dose containing equal amounts of pentosan polysulfate. As examples, the daily 600 mg dose may be administered as two 300 mg capsules of pentosan polysulfate as described herein in the morning and evening, or as three 200 mg doses (two 100 mg capsules) in the morning, at mid-day and in the evening. Typically, administration is in the non-fed mode with subjects receiving the doses either at least one hour before a meal or at least two hours after a meal. Daily 900 mg doses may be administered as three 300 mg capsules in the morning, at mid-day and in the evening. As with the 600 mg daily dose, administration typically is in the non-fed mode with subjects receiving the doses either at least one hour before a meal or at least two hours after a meal. […]

[2] = system: male subjects exhibiting signs and symptoms of Category III prostatitis; conditions: 200 mg bid, cited from earlier work
[3] = system: terminally ill cancer patients; conditions: approximately 900-2100 mg/day for up to 8 months; twenty-one patients; cited from earlier work
[4] = cited from earlier work

Substance: pentosan polysulfate
- relief of intensity and frequency of symptoms (pain, frequency and urgency of urination, nocturia, ejaculatory pain, impotence) [1]: can experience relief
- median measurement score ([2]; after 3 months of treatment, compared with placebo): lowered to a greater extent than the placebo group
- difference between the treatment group and the placebo group ([2]; after 3 months of treatment): no evident difference
- symptoms of myalgia/arthralgia ([2]; treatment group): some improvement
- patients who experienced some degree of bleeding from the rectum or digestive tract [3]: Twenty
- oral bioavailability [4]: approximately 3%
